Measurements from patent US10473645B2, “Methods for identifying a receptor for a ligand and uses thereof” (UNIVERSITE DE GENEVE, priority 2014, dated 2019).
pEC50: −log10 of the molar value.

Columns and labels:
Olfr160 = test: OR transcript downregulation by RNAseq after in vivo exposure; set-up: species or system mouse; settings: 5% odorant, 5 hours, reduction larger than 20% = downregulated
Procedure: (§1) Animals were exposed to 5% acetophenone for 5 hours before RNA extraction (as previously described). cDNA libraries were generated with the Truseq RNA and DNA sample preparation kits after selection of polyA-containing mRNAs. Adapters for RNAseq multiplexing were added to the cDNAs. The cDNA libraries were sequenced with a HiSeq®2500 Sequencing system. 100 bp reads were mapped using Bowtie2 with a 28 bp seed. The differential gene expression analyses were performed with DESeq2. Because of the high sequence similarity between OR gene paralogs, some reads are mapped to multiple OR genes. These reads were removed from the analysis.
(§2) Mice (n=6) were exposed to 5% acetophenone or to a “neutral” control condition for 5 hours. An olfactory cDNA library corresponding to each animal was deep sequenced and the ratios of odorant receptor mRNA concentrations relative to controls were plotted (FIG. 3). […] Based on transcriptional downregulation levels observed by RNAseq following acetophenone exposure, a list of 26 candidate responsive ORs was determined (FIG. 3), that reached 74% decrease (Olfr145) or even over 80% (Olfr169) relative to controls. […] The transcript downregulation of 21 out of the 26 olfactory receptor candidates obtained by RNAseq was confirmed by qPCR.

Olfr169 = test: as above; set-up: species or system mouse; settings: 5% odorant, 5 hours
Procedure: as §1, §2

Olfr983 [1] = test: as above; set-up: species or system mouse; settings: 5% odorant, 5 hours, reduction larger than 20% = downregulated
Procedure: as §1, §2

Olfr1377 = test: as above; set-up: species or system mouse; settings: 5% odorant, 5 hours, reduction larger than 20% = downregulated
Procedure: as §1, §2

Olfr556 = target: T1, Olfr556 (Mus musculus, UniProt B2RRG2); test: OR transcript level by RT-qPCR after in vivo odorant exposure; set-up: from tissue; host or cells: main olfactory epithelium of exposed mice; key to olfr556 candidate OR (RNAseq) confirmed by qPCR: The transcript downregulation of 21 out of the 26 olfactory receptor candidates obtained by RNAseq was confirmed by qPCR; false RNAseq positive candidates, namely OR candidates for which in fact mRNA was not downregulated following acetophenone exposure; settings: for Olfr556 mRNA level relative to unexposed controls: 5% odorant, 5 hours, in vivo, RT-qPCR
T1 sequence (B2RRG2 1-324): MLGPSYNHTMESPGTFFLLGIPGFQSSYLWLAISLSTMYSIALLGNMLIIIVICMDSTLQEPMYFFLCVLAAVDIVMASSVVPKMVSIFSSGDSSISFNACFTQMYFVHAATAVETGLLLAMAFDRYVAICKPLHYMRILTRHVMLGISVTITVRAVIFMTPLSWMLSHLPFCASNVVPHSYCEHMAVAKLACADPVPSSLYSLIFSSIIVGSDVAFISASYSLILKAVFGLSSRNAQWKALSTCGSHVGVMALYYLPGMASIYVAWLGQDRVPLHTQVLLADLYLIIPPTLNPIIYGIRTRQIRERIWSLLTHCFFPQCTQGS
Procedure: In vivo exposure to odorant: Starting 48 h before experiments, mice were habituated to pure DMSO on a cotton ball. 200 μl were pipetted directly onto the cotton and placed in the cage, replacing any cotton that was already in the cage for nest-making purposes.
On the day of the experiment, mice receiving odorants were transferred to a different room, where they were exposed to a cotton ball on which 200 μl of odorant diluted in pure DMSO were deposited. […] […] If a number of different odorants were tested in the same experiment, a different overpressurized room would always be used for each odorant to avoid odor cross-contamination.
After odorant exposure, mice were killed by cervical dislocation and immediately decapitated. The main olfactory epithelia (MOE), were harvested in their entirety and transferred to a tube containing 600 μl of lysis buffer and β-mercaptoethanol (RNAeasy kit, Qiagen, following the manufacturer protocol) and a 0.5 cm diameter steel ball, and then put on ice. Samples were then homogenized using a FastPrep®-24 instrument (MP Biomedicals) at 6 m/s for 30 s and left on ice. RNA extraction was performed on all samples in parallel using the Qiagen RNeasy Mini® kit following the manufacturer's instructions. Two DNase treatments were performed on all samples: first using the Qiagen RNase-Free DNase Set® and then using the Life Technologies Ambion DNase I® kit. RNA samples were then aliquoted and stored at −80° C.
RNA concentrations were determined using an Amersham Ultrospec® 3100 Pro spectrophotometer, and RNA quality was evaluated with an Agilent Technologies 2100 Bioanalyzer®. Each reverse transcription was performed with 0.5 μg RNA using the Takara Primescript® kit, in a final volume of 10 μl. Primers for reverse transcription were equal mixtures of poly-T nucleotides and random hexamers. Negative controls (omitting the reverse transcriptase enzyme) were performed for each sample. 1/14th of the cDNA preparation was used for each triplicated qPCR reaction.
qPCR Ct values were analyzed using an in-house developed Microsoft Excel® macro file. Triplicate values were compared and outliers (values with a difference higher than 0.5 Ct to their nearest neighbor) were discarded. The number of conditions with an outlying value was always less than 10% of the total number of conditions. Ct values were converted to quantities relative to the maximum for each given gene. Selected reference genes were then analyzed for variance using the geNorm algorithm. All values were normalized with the olfactory tissue-specific genes Omp and Adcy3. β-Actin was used as a non-tissue-specific reference gene to control for differences in dissection between samples. […]

olfr145 = target: T2, olfr145 (Mus musculus, UniProt Q60882); test: OR transcript downregulation by RNAseq after in vivo exposure; settings: 5% odorant, 5 hours
T2 construct: from tissue; host or cells: main olfactory epithelium of living mice
Procedure: as §1, §2

Olfr983 [2] = settings: expressed in HEK cells; previously shown; read-out: EC50 as agonist of Olfr983; cited from earlier work

T2 sequence (Q60882 whole entry): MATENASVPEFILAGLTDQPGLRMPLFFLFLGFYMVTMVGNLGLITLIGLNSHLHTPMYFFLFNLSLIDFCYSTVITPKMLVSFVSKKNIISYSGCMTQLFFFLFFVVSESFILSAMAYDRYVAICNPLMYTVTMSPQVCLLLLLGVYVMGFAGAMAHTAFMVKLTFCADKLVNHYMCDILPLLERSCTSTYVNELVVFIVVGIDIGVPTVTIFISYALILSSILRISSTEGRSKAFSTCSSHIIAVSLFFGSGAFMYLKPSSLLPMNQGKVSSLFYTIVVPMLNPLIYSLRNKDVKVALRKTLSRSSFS

In the case of `CC(=O)c1ccccc1` [acetophenone], the “Olfr160 transcript modulation (RNAseq)” value (Olfr160) was “downregulated”, the “Olfr169 transcript decrease relative to controls (RNAseq)” value (Olfr169) was “over 80%” and the “Olfr983 transcript modulation (RNAseq)” value (Olfr983 [1]) was “downregulated”. The “Olfr1377 transcript modulation (RNAseq)” value (Olfr1377) was “downregulated”, the “olfr556 candidate OR (RNAseq) confirmed by qPCR” value (Olfr556; 5% acetophenone exposure) was “y” and the “Olfr556 mRNA level relative to unexposed controls” value (Olfr556) was “decrease”. For the same compound, the “Olfr556 mRNA level relative to unexposed controls” value (Olfr556; listed as Acetophenone) was “downregulates”, the “Olfr145 transcript decrease relative to controls (RNAseq)” value (olfr145) was 74% and the pEC50 (Olfr983 [2]) was > 4.30.
